Laboratory results from PMC8776337, “Peptides Derived from Vascular Endothelial Growth Factor B Show Potent Binding to Neuropilin‐1” (Chembiochem, 2021).
Read-outs that look alike come from different tables or passages of the source. Positions of bridges follow the written chain, without caps; N, C: chain ends. Residues, ends and D or L forms follow the SMILES beside them. *: point of attachment. Palmitoyl = CCCCCCCCCCCCCCCC(=O)*; Hept6ynoyl = C#CCCCCC(=O)*

What was measured:
[1] = target: T1, NRP1‐b1 (Homo sapiens, UniProt O14786); test: SPR binding of peptides to immobilised NRP1-b1; conditions: for Receptor occupancy: immobilised NRP1-b1
T1 construct: the immobilized b1 domain of NRP1 (NRP1‐b1); poly-histidine (TEV-cleavable) (cleaved yes); made in house; host or cells: E. coli Rosetta (DE3)
T1 sequence (O14786 275-424 limits assumed): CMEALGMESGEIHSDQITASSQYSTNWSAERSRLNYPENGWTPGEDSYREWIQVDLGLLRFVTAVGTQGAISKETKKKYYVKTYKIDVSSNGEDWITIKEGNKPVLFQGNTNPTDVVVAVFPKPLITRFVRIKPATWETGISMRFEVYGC
Description: We then designed four additional peptides with added lipid chains (Figures 3 and 4). We investigated the effect of lipidation on the N‐terminus (MGC0171 and MGC0174) and on the side chain of a lysine in close proximity to the C‐terminus (MGC0172 and MGC0173) as shown (Figure 5). For the SPR analysis of the lipidated peptides we fitted data to a two‐state reaction model to account for the nonspecific binding of the palmitoyl side chains. Since the model assumes two binding events it provides two association (k a) and dissociation (k d) rates, and the overall equilibrium dissociation constant is calculated using the equation: KD=KD1(1+KD2), in which KD1 and KD2 are obtained as […]. The inverse of the dissociation rate corresponds to the residence time. […] The lipidated peptides were also tested for inhibition of VEGF‐A165 binding to NRP1 in a cell‐based assay (Figure 8).
Surface plasmon resonance: SPR measurements were performed using either Biacore T200 or Biacore 4000 at a constant temperature of 25 °C. All sensor chips, stock buffers, and immobilisation reagents were purchased from GE Healthcare/Cytvia and were prepared according to the manufacturer's instructions.
Chip preparation: PBS containing 0.05 % surfactant P20 was used as the running buffer during immobilisation. Proteins were immobilised onto a CM5 chip using random amine coupling following a standard procedure using the conditions specified in Table 2. A flow cell upstream of the treated flow cell was used as a reference which allowed removal of non‐specific binding to the chip.
Kinetic measurements of peptides: Peptides were injected over immobilized NRP1‐b1 for 60 s, followed by 120 or 180 s dissociation. The surface was regenerated with 1 M NaCl between injections. The SPR response curves were fit to a binding model to obtain association (ka ) and dissociation (kd ) rates which were then converted into equilibrium dissociation constant (KD ) and residence time. For a 1 : 1 binding model […] and for a two‐state binding model KD=K1(1+K2). Residence time was calculated as 1/kd .

[2] = target: T2, bt‐VEGF‐A165 binding to NRP1 in HUVEC cells (Homo sapiens, UniProt O14786); test: Cell based binding assay, inhibition of bt-VEGF-A165 binding to NRP1; conditions: bt-VEGF-A165 4 nM
T2 construct: expressed in transfected cells
Method: A) N‐terminal palmitoyl VEGF‐B167 derived peptide MGC0174. B) Lysine palmitoyl peptide MGC0173. C) N‐terminal palmitoyl VEGF‐A165 derived peptide MGC0171. D) Lysine VEGF‐A165 palmitoyl peptide MGC0172.
Cell based binding assay for bt‐VEGF binding to NRP1‐b1: A flat‐bottomed 96 well plate was coated with 100 μL 10 μg/mL Poly‐D‐lysine (110 μL in 10890 μL PBS) and incubated for 1 hour at R.T. DU145 cells were seeded at a concentration of 20,000 DU145 cells/well in DMEM with 10 % FBS and incubated for 4 hours. Cells were then infected with 0.3 μL per well of adenovirus expressing NRP1 (stock at 1×1012 vp/mL) and incubated for 40 hours. The media was removed followed by washing cells twice in 200 μL of PBS per well. The plate was placed on ice and 50 μL of binding medium was added per well for total binding. Next, 50 μL of 100‐fold excess (100×btVEGF‐A165) of unlabelled‐VEGF (diluted in binding medium) was added per well for non‐specific binding. Peptides (50 μL) at the indicated concentrations were diluted in binding medium and added to specified wells. bt‐VEGF (50 μL of 4 nM; diluted in binding medium) was added per well for both total and non‐specific binding and samples. The plate was incubated at 4 °C for 2 hours. The plate was then placed on ice and the medium was removed followed by gently washing the cells 3 times in 200 μL of PBS per well.
Streptavidin‐horseradish peroxidase (100 μL; dilute to the working concentration specified on the vial label using PBS+1 % BSA=1 : 200) was added to each well. The plate was sealed and incubated for 30 minutes at room temperature. Three more washes with 200 μL PBS were done. Then, 100 μL of substrate solution was added to each well (protected from light). Colour Reagent A and B were mixed together in equal volumes within 15 minutes of use. The plate was sealed and incubated for 20 minutes at room temperature. Stop solution (50 μL) was added to each well ensuring even mixing. The plate was read using Tecan Genios plate reader using a 450 nm cut‐off filter and also with a reference 595 nm cut‐off filter. Nonspecific binding was determined in the absence of NP‐1 coated on the microplate.

[3] = system: VEGF‐A165 stimulated phosphorylation in HUVECs; test: Western blot of VEGF-A-stimulated phosphorylation of downstream signalling proteins in HUVECs; type: cell-based, human; conditions: HUVECs pre-treated 30 min with 10 μM peptide, then VEGF-A165 10 min
Method: Figure 7 Effect of VEGF ‐ derived peptides on VEGF‐A ‐stimulated phosphorylation of downstream signalling proteins as probed by Western blot. A) VEGF‐B167 derived peptide MGC0123. B) VEGF‐A165 derived peptide MGC0124. HUVECs were pre‐treated for 30 min with peptide (10 μM) then stimulated for 10 minutes with VEGF‐A165.
Cell culture: Human umbilical vein endothelial cells (HUVECs) were cultured in t75 cm2 flasks for a maximum of 2 passages in EGM Endothelial Cell Growth Medium (#CC‐3124, Lonza, USA) supplemented with 10 % FBS. Cells were split into 6‐well‐plates and allowed to grow to ∼80 % confluence. Cells were starved by incubating in 0.5 % FBS serum EGM overnight and serum‐free EGM for 1 h directly before stimulation. Human DU145 cells for the cell‐based assay (see below) were cultured in t75 cm2 flasks in DMEM supplemented with 10 % FBS.
Immunoblotting: Cells were pre‐treated with the indicated peptide (10 μM) for 30 minutes prior to treatment with VEGF‐A165 at the indicated concentrations for 10 minutes. Cells were lysed in a solution containing Tris⋅HCl (pH 7.5, 50 mm), Triton X‐100 (1 %), NaCl (150 mm), EDTA (5 mm), complete protease inhibitor (Roche) and phosphatase inhibitors I and II (Sigma) and analysed by SDS‐PAGE with 4–12 % Bis⋅Tris gels (Nupage, Invitrogen), followed by electrotransfer onto Invitrolon PVDF membranes (Invitrogen). Membranes were blocked with non‐fat dry milk (5 % w/v) and Tween‐20 (0.1 % v/v) in tris‐buffered saline (TBS‐T), for 1 h at room temperature, before being probed with the primary antibody by overnight incubation at 4 degrees C, followed by incubation for 1 h at room temperature with a horseradish‐ peroxidase‐linked secondary antibody (Santa Cruz) and detection with the aid of ECL plus reagents (GE Healthcare, Little Chalfont, UK), by the manufacturer's protocol.

[4] = SPR, immobilised NRP1-b1, 25 °C, 1:1 model, or first residence time of the two-state model, read-out: Residence time (1/kd) (converted)

T2 sequence (O14786 22-923): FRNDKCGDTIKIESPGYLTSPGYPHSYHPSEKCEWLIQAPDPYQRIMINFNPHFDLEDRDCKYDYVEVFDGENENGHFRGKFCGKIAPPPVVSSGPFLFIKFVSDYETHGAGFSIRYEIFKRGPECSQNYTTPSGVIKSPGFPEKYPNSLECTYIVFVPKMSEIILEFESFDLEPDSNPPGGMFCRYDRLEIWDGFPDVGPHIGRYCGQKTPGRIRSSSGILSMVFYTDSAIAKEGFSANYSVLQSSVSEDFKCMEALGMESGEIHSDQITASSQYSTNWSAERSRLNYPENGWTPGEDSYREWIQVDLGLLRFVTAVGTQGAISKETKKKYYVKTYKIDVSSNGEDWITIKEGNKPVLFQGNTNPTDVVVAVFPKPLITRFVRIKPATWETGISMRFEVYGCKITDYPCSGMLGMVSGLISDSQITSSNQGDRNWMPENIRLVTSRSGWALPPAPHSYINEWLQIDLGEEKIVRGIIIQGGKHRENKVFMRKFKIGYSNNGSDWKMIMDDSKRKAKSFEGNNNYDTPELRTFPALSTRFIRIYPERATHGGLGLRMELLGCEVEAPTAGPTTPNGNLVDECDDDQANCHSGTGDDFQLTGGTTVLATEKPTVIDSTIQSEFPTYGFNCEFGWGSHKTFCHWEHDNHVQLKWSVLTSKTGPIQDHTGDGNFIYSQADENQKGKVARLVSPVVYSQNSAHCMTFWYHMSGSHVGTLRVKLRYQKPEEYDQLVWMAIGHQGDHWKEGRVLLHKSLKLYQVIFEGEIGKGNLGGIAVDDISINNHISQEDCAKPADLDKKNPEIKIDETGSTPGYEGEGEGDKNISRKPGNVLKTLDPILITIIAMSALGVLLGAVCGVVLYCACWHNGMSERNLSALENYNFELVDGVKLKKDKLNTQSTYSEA

| residence time [1, 4] | residence time ([1]; SPR, immobilised NRP1-b1, 25 °C, two-state model, lipidated peptides, read-out: Second residence time calculated from two‐state model (converted)) | Kd ([1]; SPR, peptide injected 60 s over NRP1-b1 immobilised on CM5 chip, 25 °C, 1:1 model for MGC0122/0123/0124, two-state model for lipidated peptides, read-out: KD, SPR binding to NRP1‐b1) | IC50 ([2]; 4 °C, 2 h, streptavidin-horseradish peroxidase detection, read-out: IC50, cell‐based activity (HUVECs), inhibition of bt‐VEGF‐A165 binding to NRP1) | HS (of the inhibition curve of bt‐VEGF‐A165 binding to NRP1) ([2]; HUVEC cells) | Structure (SMILES) | Receptor occupancy ([1]; SPR) | VEGF‐A165 dependent ERK phosphorylation [3] | VEGF‐A165 dependent VEGFR2 phosphorylation [3] | VEGF‐A mediated P130Cas phosphorylation [3] | VEGF‐A mediated Paxillin phosphorylation [3] | residence time ([1]; read-out: Residence time (1/kd)) |
| --- | --- | --- | --- | --- | --- | --- | --- | --- | --- | --- | --- |
| 0.0883 min | 1.58 min | 3320 ± 160 nM | 1700 nM | 1.7 | CCCCCCCCCCCCCCCC(=O)N[C@@H](CO)C(=O)N[C@H]1CSSC[C@@H]2NC(=O)[C@H]([C@@H](C)O)NC(=O)[C@H](CCCNC(=N)N)NC(=O)[C@H](CCC(=O)O)NC(=O)[C@H](CC(N)=O)NC(=O)[C@H](CC(C)C)NC(=O)[C@H](CCC(=O)O)NC(=O)[C@H](CC(C)C)NC(=O)[C@H](CCC(N)=O)NC(=O)[C@H](CCCNC(=N)N)NC(=O)[C@H](C)NC(=O)[C@H](CCCCN)NC(=O)[C@H](CSSC[C@@H](C(=O)N[C@@H](CC(=O)O)C(=O)N[C@@H](CCCCN)C(=O)N3CCC[C@H]3C(=O)N[C@@H](CCCNC(=N)N)C(=O)N[C@@H](CCCNC(=N)N)C(=O)O)NC(=O)[C@H](CCCNC(=N)N)NC2=O)NC(=O)[C@H](CCCNC(=N)N)NC(=O)[C@H](CO)NC(=O)[C@H](CC(=O)O)NC(=O)[C@H]([C@@H](C)O)NC(=O)[C@H](CC(N)=O)NC(=O)[C@H](CCCCN)NC1=O [MGC0171] (Palmitoyl-SCKNTDSRCKARQLELNERTCRCDKPRR-OH; disulfide 2-21, 9-23) |  |  |  |  |  |  |
| 0.0362 min |  |  |  |  | C#CCCCCC(=O)N[C@@H](CC(=O)O)C(=O)N[C@@H](CCCNC(=N)N)C(=O)N[C@@H](C)C(=O)N[C@@H](C)C(=O)N[C@H](C(=O)N1CCC[C@H]1C(=O)N[C@@H](Cc1c[nH]cn1)C(=O)N[C@@H](Cc1c[nH]cn1)C(=O)N[C@@H](CCCNC(=N)N)C(=O)N1CCC[C@H]1C(=O)N[C@@H](CCC(N)=O)C(=O)N1CCC[C@H]1C(=O)N[C@@H](CCCNC(=N)N)C(=O)O)[C@@H](C)O [MGC0122] (Hept6ynoyl-DRAATPHHRPQPR-OH) |  |  |  |  |  |  |
| 0.0117 min |  |  |  |  | C#CCCCCC(=O)N[C@@H](CO)C(=O)N[C@H]1CSSC[C@@H]2NC(=O)[C@H]([C@@H](C)O)NC(=O)[C@H](CCCNC(=N)N)NC(=O)[C@H](CCC(=O)O)NC(=O)[C@H](CC(N)=O)NC(=O)[C@H](CC(C)C)NC(=O)[C@H](CCC(=O)O)NC(=O)[C@H](CC(C)C)NC(=O)[C@H](CCC(N)=O)NC(=O)[C@H](CCCNC(=N)N)NC(=O)[C@H](C)NC(=O)[C@H](CCCCN)NC(=O)[C@H](CSSC[C@@H](C(=O)N[C@@H](CC(=O)O)C(=O)N[C@@H](CCCCN)C(=O)N3CCC[C@H]3C(=O)N[C@@H](CCCNC(=N)N)C(=O)N[C@@H](CCCNC(=N)N)C(=O)O)NC(=O)[C@H](CCCNC(=N)N)NC2=O)NC(=O)[C@H](CCCNC(=N)N)NC(=O)[C@H](CO)NC(=O)[C@H](CC(=O)O)NC(=O)[C@H]([C@@H](C)O)NC(=O)[C@H](CC(N)=O)NC(=O)[C@H](CCCCN)NC1=O [MGC0124] (Hept6ynoyl-SCKNTDSRCKARQLELNERTCRCDKPRR-OH; disulfide 2-21, 9-23) | 84±1% | little effect | strongly reducing | little effect | little effect |  |
|  |  |  |  |  | C#CCCCCC(=O)N[C@@H](CCCNC(=N)N)C(=O)N[C@H]1CSSC[C@@H]2NC(=O)[C@H]([C@@H](C)O)NC(=O)[C@H](CC(=O)O)NC(=O)[C@@H]3CCCN3C(=O)[C@H](CC(N)=O)NC(=O)[C@H](CC(C)C)NC(=O)[C@H](CCC(=O)O)NC(=O)[C@H](CC(C)C)NC(=O)CNC(=O)[C@H](CCCNC(=N)N)NC(=O)CNC(=O)[C@H](CCC(N)=O)NC(=O)[C@H](CSSC[C@@H](C(=O)N[C@@H](CCCNC(=N)N)C(=O)N[C@@H](CCCCN)C(=O)N[C@@H](CC(C)C)C(=O)N[C@@H](CCCNC(=N)N)C(=O)N[C@@H](CCCNC(=N)N)C(=O)O)NC(=O)[C@H](CCCNC(=N)N)NC2=O)NC(=O)[C@H](CCCNC(=N)N)NC(=O)[C@H](CC(C)C)NC(=O)[C@H](Cc2ccccc2)NC(=O)[C@H](CO)NC(=O)[C@H](CCCNC(=N)N)NC(=O)[C@H](CCCNC(=N)N)NC(=O)[C@H](CCCNC(=N)N)NC1=O [MGC0123] (Hept6ynoyl-RCRRRSFLRCQGRGLELNPDTCRCRKLRR-OH; disulfide 2-22, 10-24) | 54±3% | dramatically inhibited | dramatically inhibited | also inhibited | also inhibited | 0.308 min |
